{"source": "patent US20230190604A1", "about": "“DERMATOLOGIC/PERSONAL CARE CONCENTRATES” (Vantage Specialty Ingredients, Inc., priority 2021, published 2023)", "origin": "cited, not measured here", "key": {"[1]": {"details": "ethanol as solvent, \"normal temperatures\""}, "[2]": {"details": "water as solvent"}}, "data": [{"smiles": "O=C(O)CCCCCCCC(=O)O", "note": "[azelaic acid]", "values": [{"measurement": "stability of azelaic acid in ethanol", "setting": "[1]", "value": "unstable"}, {"measurement": "maximum concentration of azelaic acid dissolved in water", "setting": "[2]", "value": "about 0.24 % by weight (w/w)"}]}]}
